This passage reports IC50 results from patent US8598202B2, “Aryl-hydroxyethylamino-pyrimidines and triazines as modulators of fatty acid amide hydrolase” (Janssen Pharmaceutica NV, priority 2008, dated 2013).

One test deals with T1, Rat FAAH-1 (Rattus norvegicus, UniProt P97612).
T1 sequence (P97612 1-579): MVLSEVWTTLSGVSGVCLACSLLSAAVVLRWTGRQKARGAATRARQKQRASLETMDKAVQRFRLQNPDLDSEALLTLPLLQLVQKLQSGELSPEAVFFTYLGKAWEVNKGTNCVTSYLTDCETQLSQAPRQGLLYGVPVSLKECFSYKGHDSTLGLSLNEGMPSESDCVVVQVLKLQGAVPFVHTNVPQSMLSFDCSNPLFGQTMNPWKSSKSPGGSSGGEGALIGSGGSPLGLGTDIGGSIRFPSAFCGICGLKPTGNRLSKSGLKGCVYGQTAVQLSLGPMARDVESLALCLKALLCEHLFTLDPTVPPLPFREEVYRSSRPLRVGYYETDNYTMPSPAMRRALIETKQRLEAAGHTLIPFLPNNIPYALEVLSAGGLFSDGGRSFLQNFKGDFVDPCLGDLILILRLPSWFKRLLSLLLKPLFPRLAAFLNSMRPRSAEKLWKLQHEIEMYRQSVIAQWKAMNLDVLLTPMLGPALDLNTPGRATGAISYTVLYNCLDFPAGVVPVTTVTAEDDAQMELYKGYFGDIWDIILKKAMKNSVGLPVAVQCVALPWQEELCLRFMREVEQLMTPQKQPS
Nature of the test: Assay Method 2: rat FAAH-1 assay, 3H-anandamide hydrolysis in homogenate of SK-N-MC cells transfected with rat FAAH.

The next test deals with T2, FAAH (Homo sapiens, UniProt O00519).
T2 sequence (O00519 1-579): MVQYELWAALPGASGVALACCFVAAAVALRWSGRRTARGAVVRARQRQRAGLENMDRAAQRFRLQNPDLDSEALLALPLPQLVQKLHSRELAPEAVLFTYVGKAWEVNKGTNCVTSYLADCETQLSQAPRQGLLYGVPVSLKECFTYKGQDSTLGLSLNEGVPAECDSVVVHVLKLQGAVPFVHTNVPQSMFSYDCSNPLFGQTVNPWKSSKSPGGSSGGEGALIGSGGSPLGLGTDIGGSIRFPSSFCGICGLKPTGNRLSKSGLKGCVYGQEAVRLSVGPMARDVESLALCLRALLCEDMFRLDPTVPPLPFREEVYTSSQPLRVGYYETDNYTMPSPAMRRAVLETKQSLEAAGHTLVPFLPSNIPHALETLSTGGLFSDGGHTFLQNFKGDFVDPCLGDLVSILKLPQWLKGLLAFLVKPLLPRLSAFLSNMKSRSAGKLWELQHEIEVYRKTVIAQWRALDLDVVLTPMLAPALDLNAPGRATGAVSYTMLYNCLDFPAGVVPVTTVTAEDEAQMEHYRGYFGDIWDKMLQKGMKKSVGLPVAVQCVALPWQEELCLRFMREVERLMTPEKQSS
Nature of the test: Assay Method 1: FAAH assay, 3H-anandamide hydrolysis in homogenate of T84 cells or SK-N-MC cells transfected with human FAAH.

Counter-ions that a name gives are not always drawn.

The term IC50 denotes the midpoint of a concentration-inhibition curve. Read a high IC50 as lower potency. With `OC(CNc1cc(-c2ccc(C(F)(F)F)c(Cl)c2)ncn1)c1ccc(N2CCCC2)cc1` (stereo not drawn) [Example 208, 2-({6-[3-Chloro-4-(trifluoromethyl)phenyl]pyrimidin-4-yl}amino)-1-(4-pyrrolidin-1-ylphenyl)ethanol], the IC50 against Rat FAAH-1 is 500 nM; against FAAH it was 28 nM.

In the case of `COc1ccccc1C(O)CNc1cc(-c2ccc(OC(F)(F)F)cc2)ncn1` (stereo not drawn) [Example 118, 1-[2-(Methyloxy)phenyl]-2-[(6-{4-[(trifluoromethyl)oxy]phenyl}-pyrimidin-4-yl)amino]ethanol], the IC50 is above 10000 nM on Rat FAAH-1 and 93 nM against FAAH.

`Cc1cc(-c2cc(NC[C@H](O)c3ccccc3)ncn2)ccc1OC(C)C` [Example 46, (1R)-2-({6-[3-Methyl-4-(1-methylethoxy)phenyl]pyrimidin-4-yl}amino)-1-phenylethanol]: the half-maximal inhibitory concentration (IC50) on Rat FAAH-1 amounted to 26 nM; against FAAH, 13 nM.

For `O[C@@H](CNc1cc(-c2ccc(C(F)(F)F)c(Cl)c2)ncn1)c1ccc(Cl)c(F)c1` [Example 146, (1R)-1-(4-Chloro-3-fluoro-phenyl)-2-[6-(3-chloro-4-trifluoromethyl-Phenyl)-pyrimidin-4-ylamino]-ethanol], the IC50 on Rat FAAH-1 is 4 nM; against FAAH, 26 nM.

Take `Cc1ccc(-c2cc(NC[C@H](O)c3ccccc3)ncn2)cc1Cl` [Example 39, (1R)-2-{[6-(3-Chloro-4-methylphenyl)pyrimidin-4-yl]amino}-1-phenylethanol trifluoroacetic acid salt]: the IC50 against Rat FAAH-1 was 60 nM; against FAAH it was 18 nM.

Regarding `CSc1nc(NC[C@H](O)c2ccccc2)cc(-c2ccc(C(F)(F)F)c(F)c2)n1` [Example 102, (1R)-2-({6-[3-Fluoro-4-(trifluoromethyl)phenyl]-2-(methylsulfanyl)pyrimidin-4-yl}amino)-1-phenylethanol trifluoroacetic acid salt], the values for the half-maximal inhibitory concentration (IC50) at Rat FAAH-1 and on FAAH were 50 nM and 17 nM, respectively.

In the case of `COc1ccc(C(O)CNc2cc(-c3ccc(OC(F)(F)F)cc3)ncn2)cc1` (stereo not drawn) [Example 111, 1-[4-(Methyloxy)phenyl]-2-[(6-{4-[(trifluoromethyl)oxy]phenyl}-pyrimidin-4-yl)amino]ethanol], the figures for the IC50 at Rat FAAH-1 and against FAAH were 220 nM and 122 nM, respectively.

For `O[C@@H](CNc1cc(-c2cc3cc(F)ccc3s2)ncn1)c1ccccc1` [Example 187, (1R)-2-{[6-(5-Fluoro-1-benzothiophen-2-yl)pyrimidin-4-yl}amino]-1-Phenylethanol], the IC50 came to 400 nM against Rat FAAH-1 and 20 nM against FAAH.

Consider `O[C@@H](CNc1cc(-c2cc3cc(C(F)(F)F)ccc3s2)ncn1)c1ccccc1` [Example 184, (1R)-1-Phenyl-2-({6-[5-(trifluoromethyl)-1-benzothiophen-2-yl]pyrimidin-4-yl}amino)ethanol trifluoroacetic acid salt], for which the IC50 was 160 nM on Rat FAAH-1 and 31 nM against FAAH.

Consider `CC(C)Sc1ccc(-c2cc(NC[C@H](O)c3ccccc3)ncn2)cc1` [Example 91, (1R)-2-[(6-{4-[(1-Methylethyl)sulfanyl]phenyl}pyrimidin-4-yl)amino]-1-phenylethanol trifluoroacetic acid salt], for which the IC50 stood at 57 nM on Rat FAAH-1 and 3 nM against FAAH.

On to `OC(CNc1cc(-c2ccc(C(F)(F)F)c(Cl)c2)ncn1)c1ccc(-c2ccccc2)cc1` (stereo not drawn) [Example 195, 1-Biphenyl-4-yl-2-({6-[3-chloro-4-(trifluoromethyl)phenyl]pyrimidin-4-yl}amino)ethanol], for which the IC50 at Rat FAAH-1 was found to be 400 nM; against FAAH it was 10 nM.

In the case of `CC(C)c1nc(NC[C@H](O)c2ccccc2)cc(-c2ccc(Cl)c(Cl)c2)n1` [Example 137, (1R)-2-{[6-(3,4-Dichlorophenyl)-2-(1-methylethyl)pyrimidin-4-yl]amino}-1-phenylethanol], the IC50 on Rat FAAH-1 is 5000 nM; at FAAH it was 920 nM.
